Measured values published in patent publication US20040038855A1 (priority 1999, published 2004).
pKi: −log10 of the molar value. Counter-ions that a name gives are not always drawn. Like-named read-outs stand apart in the source and are kept apart here.

Tests used:
[1] = molecular target: T1, human α1D adrenergic receptor (Homo sapiens, UniProt P25100); assay: Binding affinity at the human α1D adrenergic receptor; conditions: Table 3d; read-out: hα1D Ki
T1 construct: expressed in transfected cells
T1 sequence (P25100 1-572): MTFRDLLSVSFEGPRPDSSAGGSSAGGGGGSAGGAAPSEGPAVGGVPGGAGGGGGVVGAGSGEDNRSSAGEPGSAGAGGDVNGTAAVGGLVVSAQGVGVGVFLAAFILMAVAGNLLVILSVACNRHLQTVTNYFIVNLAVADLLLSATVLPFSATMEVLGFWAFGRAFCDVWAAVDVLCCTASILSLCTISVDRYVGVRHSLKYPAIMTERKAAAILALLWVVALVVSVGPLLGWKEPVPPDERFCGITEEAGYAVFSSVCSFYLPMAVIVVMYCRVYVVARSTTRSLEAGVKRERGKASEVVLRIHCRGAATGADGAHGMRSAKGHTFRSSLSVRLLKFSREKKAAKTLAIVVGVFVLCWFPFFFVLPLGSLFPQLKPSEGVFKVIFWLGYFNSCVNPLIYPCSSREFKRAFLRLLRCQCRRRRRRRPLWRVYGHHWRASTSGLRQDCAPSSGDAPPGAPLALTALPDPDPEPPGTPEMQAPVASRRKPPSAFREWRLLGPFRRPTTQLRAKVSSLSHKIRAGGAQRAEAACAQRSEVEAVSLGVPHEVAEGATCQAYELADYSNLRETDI
From the text: (§1) Other receptors: Cell membranes expressing human dopamine D1, D2, D4 and rat D3 receptors were purchased through BioSignal, Inc. (Montreal, Canada). Binding assays using the histamine H1 receptor; dopamine receptors; and α1A, α1B, and α2 adrenergic receptors may be carried out according to the procedures described in U.S. Pat. No. 5,780,485, the disclosure of which is hereby incorporated by reference in its entirety into this application. Binding assays using the dopamine D5 receptor may be carried out according to the procedures described in U.S. Pat. No. 5,882,855, the disclosure of which is hereby incorporated by reference in its entirety into this application. Binding assays for the human α1D adrenergic receptor may be carried out according to the procedures described in U.S. Pat. No. 6,156,518, the disclosure of which is hereby incorporated by reference in its entirety into this application.

human α2B adrenoceptor = molecular target: T2, human α2B adrenoceptor (Homo sapiens, UniProt P18089); assay: Binding affinity at the human α2B adrenergic receptor
T2 construct: expressed in transfected cells
T2 sequence (P18089 1-450): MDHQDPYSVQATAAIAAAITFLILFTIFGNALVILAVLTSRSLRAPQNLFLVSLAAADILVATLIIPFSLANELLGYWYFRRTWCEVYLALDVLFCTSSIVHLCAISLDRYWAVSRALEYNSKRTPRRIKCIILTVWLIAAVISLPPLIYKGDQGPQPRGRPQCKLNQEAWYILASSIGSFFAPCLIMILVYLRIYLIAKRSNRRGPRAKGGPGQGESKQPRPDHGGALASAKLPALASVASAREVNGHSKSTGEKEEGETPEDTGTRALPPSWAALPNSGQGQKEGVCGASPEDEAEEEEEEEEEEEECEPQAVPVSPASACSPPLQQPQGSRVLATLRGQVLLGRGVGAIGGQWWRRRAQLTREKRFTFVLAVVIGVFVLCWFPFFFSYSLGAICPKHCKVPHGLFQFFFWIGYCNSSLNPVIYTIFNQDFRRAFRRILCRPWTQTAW
From the text: as §1

human α2C adrenoceptor = molecular target: T3, human α2C adrenoceptor (Homo sapiens, UniProt P18825); assay: Binding affinity at the human α2C adrenergic receptor
T3 construct: expressed in transfected cells
T3 sequence (P18825 1-462): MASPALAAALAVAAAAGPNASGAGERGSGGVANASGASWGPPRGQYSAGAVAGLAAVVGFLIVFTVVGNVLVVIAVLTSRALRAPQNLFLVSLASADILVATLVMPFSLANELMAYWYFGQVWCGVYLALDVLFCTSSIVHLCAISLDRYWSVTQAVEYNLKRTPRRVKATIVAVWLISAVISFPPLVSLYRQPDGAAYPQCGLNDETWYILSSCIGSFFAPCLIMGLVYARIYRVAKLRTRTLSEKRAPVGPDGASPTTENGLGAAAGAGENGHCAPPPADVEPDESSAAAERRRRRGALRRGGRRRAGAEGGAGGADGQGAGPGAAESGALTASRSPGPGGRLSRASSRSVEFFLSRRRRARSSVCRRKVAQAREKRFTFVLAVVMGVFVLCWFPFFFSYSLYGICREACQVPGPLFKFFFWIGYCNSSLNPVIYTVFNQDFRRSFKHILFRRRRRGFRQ
From the text: as §1

human MCH1 receptor = human MCH1 receptor (Homo sapiens, UniProt Q99705); assay: Intracellular calcium response to MCH in COS-7 cells transfected with MCH1 (fluo-3, FLIPR): antagonist potency; assay type: cell-based; set-up: expressed in transfected cells; host or cells: COS-7
From the text: MCH1 antagonist compounds were identified by their ability to inhibit the MCH-elicited response. […]. From the IC50 values, the antagonist potency (Kb)was derived using the Cheng-Prussof correction (Lazareno and Birdsall, 1993). […]

[2] = molecular target: T4, human H2 histamine receptor (Homo sapiens, UniProt P25021); assay: Binding affinity at the human histamine H2 receptor
T4 construct: expressed in transfected cells
From the text: Binding studies for the β-adrenoceptor may be performed according to the method of Riva and Creese, 1989. Binding assays for the remainder of the receptors may be carried out according to the procedures described in U.S. Pat. No. 5,780,485, the disclosure of which is hereby incorporated by reference in its entirety into this application.

T4 sequence (P25021 whole entry): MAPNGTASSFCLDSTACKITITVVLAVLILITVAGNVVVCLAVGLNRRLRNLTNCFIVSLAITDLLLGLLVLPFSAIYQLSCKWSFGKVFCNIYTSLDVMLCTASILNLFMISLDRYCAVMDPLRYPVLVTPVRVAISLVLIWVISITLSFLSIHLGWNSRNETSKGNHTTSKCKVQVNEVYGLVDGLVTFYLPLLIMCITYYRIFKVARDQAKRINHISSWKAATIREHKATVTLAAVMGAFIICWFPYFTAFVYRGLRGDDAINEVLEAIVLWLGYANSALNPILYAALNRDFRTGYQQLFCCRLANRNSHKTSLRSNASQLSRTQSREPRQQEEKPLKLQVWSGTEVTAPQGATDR
Sequence of human MCH1 receptor (Q99705 whole entry): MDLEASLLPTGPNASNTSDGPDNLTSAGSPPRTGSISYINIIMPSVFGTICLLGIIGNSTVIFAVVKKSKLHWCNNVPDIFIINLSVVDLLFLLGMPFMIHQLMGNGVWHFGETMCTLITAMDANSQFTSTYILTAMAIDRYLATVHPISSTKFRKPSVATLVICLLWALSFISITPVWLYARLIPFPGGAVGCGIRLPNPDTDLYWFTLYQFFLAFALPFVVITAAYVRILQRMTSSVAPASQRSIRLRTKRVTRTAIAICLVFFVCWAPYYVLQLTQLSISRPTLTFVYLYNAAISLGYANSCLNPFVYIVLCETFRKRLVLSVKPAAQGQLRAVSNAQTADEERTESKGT

Row | Molecule | pKi [1] | pKi (human α2C adrenoceptor; Table 3d, read-out: hα2C Ki) | pKi (human α2B adrenoceptor) | pKi [2] | Kb (human MCH1 receptor; read-out: Kb (nM) hMCH1) | further results
1 | 2-(3,4-DIFLUOROPHENYL)4,5-DIHYDROIMIDAZOLE-1-CARBOXYLIC ACID {3-[4-PHENYL-4-(4-BROMO-5-METHYLTHIOPNEN-2-YL)]-PROPYL}-AMIDE [Example 19] | 6.29 | 6.76 |  |  |  | pKi (human α2B adrenoceptor; Table 3d, read-out: hα2B Ki): 6.46; Kb (human MCH1 receptor; Table 3a, antagonist potency, read-out: hMCH1 Kb): 7 nM; Kb (human MCH1 receptor; Table 3b, antagonist potency, read-out: hMCH1 Kb): 7 nM; Kb (human MCH1 receptor; antagonist potency, inhibition of the response to 500 nM MCH, IC50 corrected by Cheng-Prussof, read-out: Kb (nM) hMCH1): 7 nM
2 | COC(=O)C1=C(C)NC(=O)N(C(=O)NCCCN2CCC3(CC2)OCc2ccccc23)C1c1ccc2nonc2c1 (single isomer, unassigned) [Example 18, HYDROCHLORIDE] | 6.21 |  | 7.13 | 6.03 |  | pKi (human α2C adrenoceptor): 7.02; Kb (human MCH1 receptor): 1 nM
3 | CCC1=C(C(=O)O)C(c2ccc(F)c(F)c2)N(C(=O)NCCCN2CCC3(CC2)OCc2ccccc23)C(=O)N1 (single isomer, unassigned; (+)) [Example 4, (+)-1,2,3,6-TETRAHYDRO-1-1N-[4-(BENZO-4′,5′(H)FURAN)PIPERIDIN-1-YL]PROPYL}-CARBOXAMIDO-4-ETHYL-6-(3,4-DIFLUOROPHENYL)-2-OXO-PYRIMIDINE-5 CARBOXYLIC ACID HYDROCHLORIDE] |  |  |  |  | 187 nM | 
4 | COCC1=C(C(=O)OC)C(c2ccc(F)c(F)c2)N(C(=O)NCCCN2CCC(c3cccc(NC(C)=O)c3)CC2)C(=O)N1 (single isomer, unassigned; (-)) [Example 1, (−)-1,2,3,6-TETRAHYDRO-1-{N-[4-(3,-ACETAMIDO)-PHENYLPIPERIDIN-1-YL]PROPYL}CARBOXAMIDO-4-METHOXYMETHYL-6-(3,4-DIFLUORO-PHENYL)-2-OXOPYRIMIDINE-5-CARBOXYLIC ACID METHYL ESTER] | 5.88 |  |  |  | 42 nM | 
5 | COCC1=C(C(=O)OC)[C@H](c2ccc(F)c(F)c2)N(C(=O)NCCCN2CCC(c3cccc(NC(C)=O)c3)CC2)C(=O)N1 [Example 10, (+)-1,2,3,6-TETRAHYDRO-1-{N-[4-(3,-ACETAMIDO)-PHENYLPIPERIDIN-1-YL]PROPYL}CARBOXAMIDO-4-METHOXYMETHYL-6-(3,4-DIFLUORO-PHENYL)-2-OXOPYRIMIDINE-5-CARBOXYLIC ACID METHYL ESTER] | 4.91 |  |  |  |  | pKi ([2]; Table 3e, * = >50000, read-out: hH2 Ki): < 4.30; Kb (human MCH1 receptor; intracellular calcium mobilization assay, read-out: antagonist potency (Kb)): 0.3 nM
6 | COC(=O)C1=C(C)NC(=O)N(C(=O)NCCCN2CCC3(CC2)OCc2ccccc23)C1c1ccc(F)c(F)c1 (stereo not drawn) [Example 20, 4-(3,4-DIFLUORPHENYL)-6-METHYL-2-OXO-3-{[3-(4-SPIRO[ISOBENZOFURAN-1(3H),4′-PIPERIDINE]PROPYL}-1,2,3,4-TETRAHYDROPYRIMIDINE-5-CARBOXYLIC ACID METHYL ESTER] | 6.68 | 6.86 | 7.01 | 5.72 |  | 
